How the values were obtained:
[1] = tested on: mice with valproic acid (VPA)-induced ASD; settings: cited from earlier work
BTBR and B6 mice [2] = assay: Spontaneous alternation behavior (SAB), Y maze; format: in vivo; settings: BTBR mice; RAM 10 mg/kg i.p. co-administered with ST-2223 5 mg/kg
Procedure: (§1) The drugs tested included ST-2223 [N-(4-(4-(2-methoxyphenyl)piperazin-1-yl)butyl)-6-(3-(piperidin-1-yl)propoxy)-2-naphthamide] that was designed and synthesized in the Institute of Pharmaceutical and Medicinal Chemistry, Heinrich Heine University Düsseldorf, Germany, and in accordance with previously described methodologies (Supplementary Materials). Aripiprazole (ARP) (1 mg/kg, i.p.) and memantine (MEM, 5 mg/kg, i.p.), as reference drugs, were purchased from Sigma-Aldrich (St. Louis, MO, USA). The CNS-penetrant H3R agonist (R)-α-methylhistamine (RAM, 10 mg/kg, i.p.) was purchased from Sigma-Aldrich, St. Louis, MO, USA. T. Protease and the phosphatase inhibitor cocktail were procured from Thermo Scientific, USA. The assay kit for reduced glutathione (GSH) was obtained from Sigma-Aldrich (St. Louis, MO, USA). The lipid peroxidation assay kit for estimation of malondialdehyde (MDA) was purchased from North West Life Science (Vancouver, WA, USA). The assay kits for superoxide dismutase (SOD) and catalase (CAT) were purchased from Cayman Chemical (Ann Arbor, MI, USA). The drugs were prepared daily using 1% dimethyl sulfoxide (DMSO) in 0.9% saline, for intraperitoneal (i.p.) administration at a volume of 10 mL/kg of body weight. Vehicle treatment consisted of 1% DMSO in 0.9% normal saline. All drugs were i.p. administered 30 min before the behavioral test. The doses of these drugs were chosen based on previous reports. Neurobehavioral assessment was performed blindly with respect to experimental group and drug administration.
The SAB test is based on the exploratory strategy of rodents to explore a new environment. In examining repetitive behaviors, the Y maze test took advantage of the rodents’ natural tendency to spontaneously alternate or choose a different arm of the maze instead of the one they visited on their previous entry (i.e., least recently visited arm). A decrease in the percentage alternation can also be attributed to same arm repeated visits. Spontaneous alternation behavior was measured on a Y maze apparatus, as previously described, with slight modifications. The Y maze composed of three arms (30 cm × 6 cm × 15 cm), where the arms were labeled with letters: A, B, or C. The test mouse was placed in the center of the maze and was allowed to freely explore the maze for 8 min. The number of entries into each arm and the total number of entries were recorded by the observer. A spontaneous alternation was defined as successive entry into three arms on an overlapping triplet set. Percentage spontaneous alternation was calculated as the number of spontaneous alternations (actual alternations) over the total number of entries (possible alternations). Two arm entries were subtracted from the denominator because an alternation required at least 3 entries. The apparatus was cleaned with 70% alcohol solution after each mouse was tested. (1) Percentage spontaneous alternations=Total alternations/(Total arm entries − 2) ×100

BTBR and B6 mice [3] = assay: Self-grooming paradigm (SGP); format: in vivo; settings: BTBR mice; RAM 10 mg/kg i.p. co-administered with ST-2223 5 mg/kg
Procedure: as §1
In the SGP test, mice were scored for spontaneous grooming behaviors. […] To measure SGP, each mouse was placed individually in a standard clear plastic cage (28 cm wide × 17 cm long × 12 cm high) for a total of 20 min. Mice were allowed to freely explore the cage for the entire test, the first 10 min served as a habituation period. After 10 min habituation, each mouse was scored with a stopwatch for 10 min for cumulative time spent grooming all body regions. Grooming behavior included head washing, body grooming, genital/tail grooming and paw and leg licking. The observer sat approximately 1 m from the test cage during the second 10 min of testing.

BTBR and B6 mice [4] = assay: Open field test (OFT): locomotor activity and anxiety levels; format: in vivo; settings: BTBR mice
Procedure: as §1
The open field test (OFT) systematically evaluates exploration behaviors executed in a novel open field (considered as a novel environment), as an independent control for the effects of the drugs on physical activity that could confound the interpretation of the results from the self-grooming, anxiety and spontaneous alternation. Mice were allowed to freely explore an open-field arena (45 × 45 × 30 cm), to assess general locomotor activity, and anxiety-related behaviors. The center arena was defined as the central 23 × 23 cm area. Mice were given 5 min to habituate in the center area of the arena before the recording started for the actual behavioral assessments. Recording lasted for 10 min using charge-coupled device (CCD) camera-assisted motion tracking apparatus and software (EthoVision 3.1, Noldus Information Technology, The Netherlands), and the total distance moved in the whole arena, time spent in the center and periphery were recorded. Test chambers were cleaned with 70% ethanol after each trial and were allowed to dry until ethanol evaporation and odor dissipation had occurred. When interpreting the results observed in this assessment, less time spent in the center was considered as an indicator for high levels of anxiety-like behaviors and total distance travelled signified the overall locomotor activity of tested animals.

BTBR and B6 mice [5] = assay: Marble burying task (MBT); format: in vivo; settings: BTBR mice
Procedure: as §1
The MBT is used for testing repetitive and compulsive behaviors as it accurately reflects repetitive digging behavior [95, 96]. The test was performed as described previously, with slight modifications. Briefly, cages (26 cm × 48 cm × 20 cm) were filled with fresh, unscented mouse bedding material to a depth of 5 cm, on top of which 20 marbles were placed in 4 rows of 5 marbles each (15 mm diameter). Before placing the marbles, the bedding surface was leveled by placing another cage of the same size onto the surface of the bedding and then each mouse was individually added for 10 min habituation. After habituation, the mouse was removed, and the marbles were carefully overlaid. The same mouse was then returned to its designated test cage and allowed to explore for 30 min. The total number of marbles buried (>50% marble covered by the bedding material) was determined at the end of the session.

mice sensitized with PCP = settings: acute low dose of PCP in mice sensitized by repeated high-dose PCP; cited from earlier work
[6] = tested on: oxidative stress markers (e.g., MDA and GSH); set-up: method as in PMID 27833522, PMID 27089413, PMID 22331799; settings: amphetamine- or dizocilpine-augmented oxidative stress, mouse model of schizophrenia; cited from earlier work
[7] = RAM 10 mg/kg i.p. co-administered with ST-2223 5 mg/kg

In the case of `CCC(C)(C)c1ccc(OCCCN2CCCCC2)cc1` [DL77], the “percentage of marbles buried” value ([1]; adult male Tuck-Ordinary mice with VPA-induced ASD features, subchronic 5, 10, 15 mg/kg, i.p.) is given as “significant and dose-dependent”.

For `C[C@@H](N)Cc1c[nH]cn1` [RAM, (R)-α-methylhistamine], the “effect of co-administration on the ST-2223 (5 mg)-induced enhancement in alternation” value (BTBR and B6 mice [2]) was “entirely reversed”, the “effect of co-administration on the ST-2223 (5 mg)-induced decrease in time spent self-grooming” value (BTBR and B6 mice [3]) was “nullified” and the “time spent in the center (OFT) vs saline-treated BTBR mice, given alone” value (BTBR and B6 mice [4]; RAM 10 mg/kg i.p. alone) was “did not induce any alternation”. For the same compound, the “effect of co-administration on the ST-2223 (5 mg)-induced increase in time spent in the center (OFT)” value (BTBR and B6 mice [4]; [7]) was “not reversed”, the “marble burying behavior vs saline-treated BTBR mice, given alone” value (BTBR and B6 mice [5]; RAM 10 mg/kg i.p. alone) was “did not alter” and the “effect of co-administration on the ST-2223 (5 mg)-stimulated decrease in percentage of buried marbles” value (BTBR and B6 mice [5]; [7]) was “reversed”.

In the case of `CN1CCCC1CCNS(=O)(=O)c1ccc2c(c1)CN(CC1CCCCC1)CC2` (centres unmarked) [SAR110894], the “deficit in working memory in the Y maze test” value (mice sensitized with PCP) is listed as “reversed”.

For `O=C(c1ccc(OCCCc2cnc[nH]2)cc1)C1CC1` [ciproxifan], the “repetitive behavior in the MBT” value ([1]; mice with VPA-induced ASD) is given as “reduced repetitive behavior” and the “oxidative stress markers (e.g., MDA and GSH)” value [6] is given as “mitigated”.

For `NC(=NCc1ccc(Cl)cc1)SCCCc1cnc[nH]1` [clobenpropit], the “oxidative stress markers (e.g., MDA and GSH)” value [6] is listed as “mitigated”.

— article PMC7920280, “The Multi-Targeting Ligand ST-2223 with Histamine H3 Receptor and Dopamine D2/D3 Receptor Antagonist Properties Mitigates Autism-Like Repetitive Behaviors and Brain Oxidative Stress in Mice” (International Journal of Molecular Sciences, 2021)
